The subject of assay [1] is HeLa. The assay can be described thus: Cytotoxicity against human HeLa cells after 20 hrs by MTS assay. The format is functional, cell-based. Background: Tetrazolium dyes change colour on reduction, which living cells bring about.
The subject of assay [2] is THP-1. Nature of the assay: Cytotoxicity against human THP1 cells after 20 hrs by MTS assay. The format is functional, cell-based. As to conditions: THP-1, 20 h.
The test system of assay [3] is U-937. The assay can be described thus: Cytotoxicity against human U937 cells after 20 hrs by MTS assay. The format is functional, cell-based. To be noted: U-937, 20 h.
For assay [4], the system named is A549. Nature of the assay: Cytotoxicity against human A549 cells after 20 hrs by SRB assay. The format is functional, cell-based. To be noted: A549, 20 h.
The test system of assay [5] is Vero. Nature of the assay: Cytotoxicity against african green monkey Vero cells after 20 hrs by MTS assay. The format is cell-based. As to conditions: Chlorocebus sabaeus.
Assay [6] has as its system MOLT-3. The assay can be described thus: Cytotoxicity against human MOLT3 cells after 20 hrs by MTS assay. To be noted: MOLT-3, 20 h. Type of assay: functional, cell-based.
Assay [7] has as its system Nucleic Acid. Nature of the assay: Binding affinity to Escherichia coli phiX174 RF1 DNA poly GC fragment assessed as DNA unwinding in presence of topoisomerase 1 after 30 mins by electrophoresis. The format is nucleic-acid assay.
The subject of assay [8] is Nucleic Acid. Nature of the assay: Binding affinity to Escherichia coli phiX174 RF1 DNA poly-d(G-C)2 fragment assessed as DNA unwinding in presence of topoisomerase 1 after 30 mins by electrophoresis. The format is nucleic-acid assay.

Active and inactive are the calls of the source. The rule behind the calls is not given here.

With `OC[C@@H]1C[C@H](c2ccc3ccc4cccc5ccc2c3c45)N(Cc2ccccc2O)O1` (racemic) [listing 1 of 2 here], the IC50 – broadly, the concentration at which inhibition is half-maximal – in assay [1] came to 4 µM; in assay [2], 7 µM; in assay [3] it was 32 µM; in assay [4] it was 2 µM; in assay [5], 37 µM; in assay [6], 5 µM.
As to `OC[C@H]1C[C@H](c2ccc3ccc4cccc5ccc2c3c45)N(Cc2ccccc2O)O1` (racemic), the IC50 in assay [1] was 11 µM; in assay [2], 15 µM; in assay [3], 88 µM; in assay [4], 9 µM; in assay [5], 103 µM; in assay [6], 13 µM.
For the molecule `OC[C@@H]1C[C@H](c2ccc3ccc4cccc5ccc2c3c45)N(Cc2ccccc2O)O1` (racemic) [listing 2 of 2 here], in assay [7], the result was Active.
Take `OC[C@@H]1C[C@H](c2ccc3ccc4cccc5ccc2c3c45)N(Cc2ccccc2O)O1`: the outcome in assay [8] was Active.

Source of the values: ChEMBL document CHEMBL2057103, “Synthesis and biological activity of novel bifunctional isoxazolidinyl polycyclic aromatic hydrocarbons” (Bioorg Med Chem, 2012).
